The values below come from ChEMBL document CHEMBL1135570, “Acyclic analogues of adenosine bisphosphates as P2Y receptor antagonists: phosphate substitution leads to multiple pathways of inhibition of platelet aggregation” (J Med Chem, 2002).

For orientation: Ki means a dissociation constant, usually derived from enzyme kinetics or from competition with a known ligand.

The structures appear in SMILES notation.

The species named for this experiment is Rattus norvegicus. The experiment can be described thus: Inhibition of ADP-induced activation of rat platelets using aggregometry. It counts as functional.

Regarding `CNc1nc(Cl)nc2c1ncn2C[C@H](COP(=O)(O)O)OP(=O)(O)O`, the inhibition constant (Ki) worked out at 2.6 µM.

Regarding `CNc1nc(Cl)nc2c1ncn2C(COP(=O)(O)O)COP(=O)(O)O`, affinity was put at a Ki of 5.5 µM.

`CNc1nc(Cl)nc2c1ncn2CC(COP(=O)(O)O)COP(=O)(O)O` displayed a Ki of 0.3 µM.

`CNc1nc(Cl)nc2c1ncn2C[C@@H](COP(=O)(O)O)OP(=O)(O)O` yielded a Ki of 1.4 µM.

For `CNc1nc(Cl)nc2c1ncn2CCC(COP(=O)(O)O)COP(=O)(O)O`, affinity was put at a Ki of 0.46 µM.

Consider `CNc1ncnc2c1ncn2[C@H]1C[C@H](OP(=O)(O)O)[C@@H](COP(=O)(O)O)O1`, for which the Ki worked out at 0.58 µM.

Consider `CNc1nc(Cl)nc2c1ncn2C1C[C@@H](OC(=O)NC(C)C)[C@@H](COP(=O)(O)O)O1` (stereo partly drawn), for which the Ki was 6.4 µM.

In turn, `CNc1nc(Cl)nc2c1ncn2[C@H]1CC(OC(C)=O)[C@]2(COP(=O)(O)O)CC12` (stereo partly drawn) yielded a Ki of 10 µM.

As for `CNc1nc(Cl)nc2c1ncn2CC(COC(C)=O)COC(C)=O`, the Ki is 18 µM.

As for `CNc1nc(Cl)nc2c1ncn2CC(COC(=O)Nc1ccccc1)COC(=O)Nc1ccccc1`, affinity was put at a Ki of 24 µM.

In turn, `CCC(=O)OCC(COP(=O)(O)O)Cn1cnc2c(NC)nc(Cl)nc21` (stereo not drawn) showed a Ki of 21 µM.

For the molecule `CNc1nc(Cl)nc2c1ncn2[C@H]1CC(OP(=O)(O)O)[C@]2(COC(C)=O)CC12` (stereo partly drawn), the affinity corresponds to a Ki of 16 µM.

Molecule `CNc1nc(Cl)nc2c1ncn2CC(CP(=O)(O)O)CP(=O)(O)O` returned a Ki of 0.68 µM.

In the case of `CNc1nc(Cl)nc2c1ncn2CC(COC(C)=O)COC(=O)Cc1ccccc1` (stereo not drawn), the Ki is 12.3 µM.

In turn, `CNc1nc(Cl)nc2c1ncn2[C@H]1CC(O)[C@]2(COP(=O)(O)O)CC12` (stereo partly drawn) returned a Ki of 33 µM.

Take `CNc1nc(Cl)nc2c1ncn2CC(COP(=O)(O)OP(=O)(O)O)CP(=O)(O)O` (stereo not drawn): the affinity, expressed as Ki, was 1.1 µM.

Regarding `CNc1nc(Cl)nc2c1ncn2CC(COC(C)=O)COC(=O)c1ccccc1` (stereo not drawn), the Ki was 6.9 µM.

Regarding `CNc1nc(Cl)nc2c1ncn2CC(COC(=O)c1ccccc1)COC(=O)c1ccccc1`, the affinity corresponds to a Ki of 5.1 µM.

In turn, `CNc1nc(Cl)nc2c1ncn2CC(COC(=O)Oc1ccccc1)COC(=O)Oc1ccccc1` returned a Ki of 26 µM.

`CNc1nc(Cl)nc2c1ncn2CC(COC(=O)c1ccccc1F)COC(=O)c1ccccc1F` had a Ki of 24 µM.

For the molecule `CNc1nc(Cl)nc2c1ncn2CC(COC(=S)SCc1ccccc1)COC(=S)SCc1ccccc1`, the Ki was 87 µM.

Take `CNc1nc(Cl)nc2c1ncn2CC(COC(=O)c1ccccc1)COP(=O)(O)O` (stereo not drawn): the Ki was 18 µM.

For `CNc1nc(Cl)nc2c1ncn2CC(COC(=O)CCC(=O)O)COC(=O)CCC(=O)O`, the Ki is 18 µM.

Take `C/C=C\C(=O)OCC(COC(=O)/C=C/C)Cn1cnc2c(NC)nc(Cl)nc21` (stereo not drawn): the Ki was 10 µM.

`CNc1nc(Cl)nc2c1ncn2CC(COC(=O)c1c(F)cccc1F)COC(=O)c1c(F)cccc1F` came in with a Ki of 33 µM.

Molecule `CNc1nc(Cl)nc2c1ncn2[C@H]1C[C@@H](OP(=O)(O)O)[C@@H](COP(=O)(O)O)O1` had a Ki of 0.42 µM.

As to `CNc1nc(Cl)nc2c1ncn2[C@H]1C[C@@H](OP(=O)(O)O)[C@]2(COP(=O)(O)O)C[C@H]12`, the Ki came to 0.031 µM.

On to `CNc1nc(Cl)nc2c1ncn2CC(COC(C)=O)COP(=O)(O)O` (stereo not drawn), for which affinity was put at a Ki of 110 µM.

`CNc1ncnc2c1ncn2CC(COP(=O)(O)O)COP(=O)(O)O` registered a Ki of 0.51 µM.

`CNc1nc(Cl)nc2c1ncn2[C@H]1CC(OC(C)=O)[C@]2(COC(C)=O)CC12` (stereo partly drawn) registered a Ki of 29 µM.

For `CCC(=O)OCC(COC(=O)CC)Cn1cnc2c(NC)nc(Cl)nc21`, affinity was put at a Ki of 23 µM.

Turning to `CNc1nc(Cl)nc2c1ncn2CC(COC(=O)Cc1ccccc1)COC(=O)Cc1ccccc1`, the Ki stood at 2 µM.

The molecule `CCNC(=O)O[C@@H]1CC(n2cnc3c(NC)nc(Cl)nc32)O[C@@H]1COP(=O)(O)O` (stereo partly drawn) displayed a Ki of 11 µM.

For the molecule `CNc1nc(Cl)nc2c1ncn2CC(COC(=O)C(C)(C)C)COP(=O)(O)O` (stereo not drawn), the Ki came to 29 µM.

The molecule `CNc1nc(Cl)nc2c1ncn2CC(COC(=O)C(C)(C)C)COC(=O)C(C)(C)C` gave a Ki of 3.6 µM.

The molecule `CNc1nc(Cl)nc2c1ncn2CC(COC(=O)Nc1ccccc1)COP(=O)(O)O` (stereo not drawn) came in with a Ki of 2.5 µM.

For `CNc1nc(Cl)nc2c1ncn2[C@H]1CC(OP(=O)(O)O)[C@]2(CO)CC12` (stereo partly drawn), the affinity corresponds to a Ki of 29 µM.

Molecule `CNc1nc(Cl)nc2c1ncn2CC(CCCP(=O)(O)O)CCCP(=O)(O)O` had a Ki of 25 µM.
